Series [1] can be described thus: Cell toxicity assay (CCK-8), HEK293T. The settings on record: human, HEK293T cells; 72 h (3-days) treatment, n = 3; read-out: CC50 HEK293T (Cellular IC50, 3-days incubation). The class given is cell-based. The protocol:
(§1) Approximately 1 × 10^4 JURKAT, MOLM-13, MV4-11 and HEK293T cells in RPMI 1640 (no phenol red) (100 μL) were added to a 96-well plate and treated with DMSO or a compound at indicated concentrations for 72 h or 8 days. Cell viability was measured using the CCK-8 kit (Abcam, ab228554) according to the manufacturer’s instructions.

For series [2], the system named is MOLM-13 cells. The series is described as follows: Anti-proliferation assay, MOLM-13. The class given is cell-based. The settings on record: Homo sapiens, MOLM-13, 336 h, approximately 2 weeks, read-out: inhibition of MOLM-13 cell proliferation. The protocol:
(§2) Cell proliferation assays were carried out in a 96-well tissue culture plate at 2 × 10^4 cells/well for all cell lines except in 200 μL with a compound added as 1:1000 dilution of DMSO stocks in triplicate. Culture density was determined every 3–4 days using the countess automated cell counter, after which 2 × 10^4 live cells were reseeded in fresh media and compound. The cumulative cell count was achieved by back calculation.

Series [3] can be described thus: Log D at pH 7.4 (chromatographic procedure). The settings on record: n-octanol / aqueous buffer pH 7.4, pH 7.4. Format: physicochemical. The protocol: Log D at 7.4, which is a partition coefficient between n-octanol and aqueous buffer pH 7.4 of the compounds was measured on the chromatographic procedure whose condition was developed based on a published method.[35]

Series [4] deals with MV4-11 cells. Nature of the series: Anti-proliferation assay, MV4-11. The settings on record: Homo sapiens, MV4-11, 336 h, approximately 2 weeks, read-out: inhibition of MV4-11 cell proliferation. The class given is cell-based. The protocol: as §2
Series [5] concerns the target T1, ENL (Homo sapiens, UniProt Q03111).
T1 construct: CETSAs of ENL in MOLM-13 (top) and MV4-11 (bottom) cells; endogenous in cells; host or cells: MOLM-13 and MV4-11
T1 sequence (Q03111 1-559): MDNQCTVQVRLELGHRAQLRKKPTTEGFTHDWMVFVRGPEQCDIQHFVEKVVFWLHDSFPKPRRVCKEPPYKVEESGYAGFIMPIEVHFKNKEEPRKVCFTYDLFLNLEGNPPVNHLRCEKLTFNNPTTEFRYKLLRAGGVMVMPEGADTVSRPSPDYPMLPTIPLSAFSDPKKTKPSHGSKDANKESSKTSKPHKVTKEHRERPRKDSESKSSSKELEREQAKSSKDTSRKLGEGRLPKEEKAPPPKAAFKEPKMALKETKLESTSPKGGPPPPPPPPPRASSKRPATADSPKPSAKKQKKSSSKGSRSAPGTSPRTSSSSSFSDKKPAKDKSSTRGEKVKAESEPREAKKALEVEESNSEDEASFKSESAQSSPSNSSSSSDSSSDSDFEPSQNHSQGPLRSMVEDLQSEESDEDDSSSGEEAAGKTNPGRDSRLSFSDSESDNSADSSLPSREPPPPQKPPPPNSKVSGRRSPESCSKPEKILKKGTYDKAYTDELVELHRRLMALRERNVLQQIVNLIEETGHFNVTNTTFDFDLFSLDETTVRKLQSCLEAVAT
The series is described as follows: Cellular thermal shift assay (CETSA). The settings on record: MOLM-13 and MV4-11 cells, 10 μM, 3 and 6 h. The class given is cell-based. The protocol:
MOLM-13 and MV4-11 were incubated with 10 μM of inhibitor 13 for 3 and 6 h, respectively. The cells were then collected and washed with PBS 3 times. The cell pellets were resuspended in PBS-containing protease inhibitors and aliquoted into PCR microtubes (approximately 3 million cells in 54 μL). Cells were heated at indicated temperatures for 3 min in a thermal cycler (Bio-Rad) and then incubated at room temperature for 2 min. A total of 6 μL of 10× cell lysis buffer (8% NP-40, 50% glycerol, and 10 mM dithiothreitol) was added to each sample before subjecting the sample to three freeze–thaw cycles by liquid nitrogen and 37 °C water bath incubations to lyse the cells. The cell lysates were centrifuged at 13,000 rpm at 4 °C for 10 min, and the supernatants were analyzed using SDS-PAGE and Western blotting.

Series [6] can be described thus: Cell toxicity assay (CCK-8), MOLM-13. The settings on record: human, MOLM-13 cells, 8 day treatment, n = 3; read-out: CC50 MOLM-13 (Cellular IC50, 8-days incubation). The class given is cell-based. The protocol:
as §1

The nature of series [7]: In vitro metabolic stability assay in HLM. The class given is in vitro ADME, human. The settings on record: for CLint scaled at 1 h: read-out: Liver Microsome CLint, pred. The protocol:
At 0, 5, 15, 30, 45, and 60 min, 200 μL acetonitrile (with the internal standard diclofenac as 10 μg/mL) was added to terminate the reaction, the remaining compound was analyzed by HPLC-MS/MS.

The nature of series [8]: Cell toxicity assay (CCK-8), MV4-11. Format: cell-based. The settings on record: human, MV4-11 cells, 8 day treatment, n = 3; read-out: CC50 MV4-11 (Cellular IC50, 8-days incubation). The protocol: as §1
The test system of series [9] is MOLM-13 and MV4-11 cells. Nature of the series: Cell cycle analysis. The class given is cell-based. The settings on record: 72 h treatment. The protocol: For cell cycle analysis, 5 × 10^6 cells were cultured at 2 mL/well in a 6-well plate treated in a ratio of 1:1000 with compound stocks in DMSO or 1:1000 with DMSO in triplicate. Cell cycle staining was performed by using a cell cycle analysis kit (Abcam, ab287852) and treated according to the protocol provided. The signal was analyzed by flow cytometry and the cytometry results were analyzed by CytExpert software.

Series [10] concerns HOXA9, HOXA10, MEIS1, MYB and MYC. Nature of the series: qRT-PCR of ENL target genes. The settings on record: MOLM-13 and MV4-11 cells, 72 h, concentrations as low as 1.0 μM. The class given is cell-based. The protocol: Total RNA was extracted using the RNeasy plus kit (Qiagen, 74034) and reverse-transcribed using an iScript cDNA synthesis kit (Bio-Rad, 1708890). Quantitative real-time PCR (qRT-PCR) analyses were performed as described previously using PowerUp SYBR Green PCR Master Mix (Thermo Fisher, A25742) and the Bio-Rad CFX96 real-time PCR detection system. Gene expressions were calculated following normalization to β2-microglobulin (B2M) levels using the comparative Ct (cycle threshold) method. The primer pairs are as follows. HOXA9: forward 5′-GTATAG-[…]-3′, reverse 5′-[…]-3′. MEIS1: forward 5′-[…]-3′, reverse 5′ […]-AGCAAG-3′. MYB: forward 5′-[…]-3′, reverse 5′-[…]-3′, MYC: forward 5′-[…]-AGGT-3′, reverse 5′-TTT-[…]-3′. B2M: forward 5′-[…]-3′ reverse 5′-[…]-3′.

Setting [11] is: human, human liver microsomes, pH 7.4, HLM 0.5 mg/mL, NADPH 1 mM, mean ± SD, n = 3.
Where [12] appears, read: human, human liver microsomes, pH 7.4, HLM 0.5 mg/mL, NADPH 1 mM, mean ± SD, n = 3, read-out: Liver Microsome t1/2.

Data on two molecules can be found in paper PMC11613437, “Prioritization of Eleven-Nineteen-Leukemia Inhibitors as Orally Available Drug Candidates for Acute Myeloid Leukemia” (Journal of Medicinal Chemistry, 2024).

Structures are written as SMILES.

Consider `CC(C)[C@H]1CCN1Cc1cc2cnc(NC(=O)c3ccc4nncn4c3)cc2[nH]1` [SR-C-107 (R), (R)-N-(2-((2-Isopropylazetidin-1-yl)methyl)-1H-pyrrolo[3,2-c]pyridin-6-yl)-[1,2,4]triazolo[4,3-a]pyridine-6-carboxamide], for which, in series [1], the IC50 at 72 h was > 64 µM. Further, the inhibition at 1 µM is ~90% in series [2] and ~70% in series [4]. This molecule also came in with a chromatographic logD in series [3] of 0.97. For the same molecule, the “CETSA: thermal stability of ENL vs DMSO at elevated temperatures” value in series [5] is recorded as “higher abundance of ENL”. Also, the IC50 at 8 days in series [6] was 1.25 ± 0.18 µM; in series [8], 0.81 ± 0.15 µM. In addition, the “Liver Microsome t1/2” value in series [7] (HLM 0.5 mg/mL, NADPH 1 mM, mean ± SD, n = 3) turned out to be 6.9717 ± 0.6597 h. The CLint scaled at 1 h in series [7] (setting [11]) was 4.18 mL/min/kg. The half-life in series [7] (setting [12]) stood at 6.97 h. Also, the “cell cycle: G1 phase” value in series [9] was “increase in the G1 phase”. For the same molecule, the “expression of ENL target genes” value in [10] was “effectively suppress the expression of these genes”.

In the case of `CC(C)C1CCN1Cc1ccc(CNC(=O)c2ccc3nncn3c2)cc1` (centres unmarked) [inhibitor 13], in [1], the concentration for half-maximal inhibition (IC50) at 72 h is > 64 µM. In addition, the results for the inhibition at 1 µM in [2] and in [4] were 30% and 41%, respectively. In addition, the figures for the inhibition at 10 µM in series [2] (10 μM) and in series [4] (10 μM) were 85% and 75%, respectively. Further, in series [3], the chromatographic logD turned out to be 0.31. Moreover, the “CETSA: thermal stability of ENL vs DMSO at elevated temperatures” value in series [5] was “higher abundance of ENL”. For the same molecule, the IC50 at 8 days in [6] worked out at 6.06 µM; in series [8] it was 6.72 µM. For the same molecule, the CLint scaled at 1 h in [7] (setting [11]) came to 4.09 mL/min/kg. Besides, the half-life at 1 h in series [7] (setting [12]) amounted to 7.11 ± 0.663 h. For the same molecule, the “parent compound remaining after 60 min incubation in HLM” value in series [7] (in the presence of NADPH, 60 min) is “over 90%”. Besides, in series [9], the “cell cycle: G1 phase” value was “increase in the G1 phase”. In addition, in [10], the “expression of ENL target genes” value is recorded as “effectively suppress the expression of these genes”.
